In patent publication US6541480B2, “1-aryl-1,8-naphthylidin-4-one derivative as type IV phosphodiesterase inhibitor” (Suntory Limited, priority 1997, dated 2003):

System: type IV phosphodiesterase
Test: Type IV phosphodiesterase inhibiting activity (3H-cAMP hydrolysis, PDE IV fraction from U937 cells)
Assay type: biochemical
Details: PDE IV fraction from human U937 cells, 30° C., 30 minutes
Procedure: (1) Method of Measurement of Type IV Phosphodiesterase Inhibiting Activity
The following assay was used to evaluate the ability of the compound of the present invention to suppress type IV phosphodiesterase, according to Biochemical.
1) Type IV phosphodiesterase activity fractions were prepared as follows. Human histiocytic lymphoma cell line U937 was cultured in an RPMI1640 medium containing 10% fetal calf serum to obtain 10^9 cells of U937. The cells were recovered by centrifugation and suspended in 40 ml of buffer A (20 mM bis-tris, 5 mM 2-mercaptoethanol, 2 mM benzamidine, 2 mM EDTA, 0.1 mM 4-(2-aminoethyl)benzensulfonyl hydrochloride, 50 mM sodium acetate, pH=6.5). The cells were broken by a sonication and centrifuged (4° C., 10,000G, 10 minutes) to obtain a supernatent. This was filtered by a 0.45 μm filter to obtain the soluble fraction.
The soluble fraction obtained was applied into a 1×10 cm DEAE Sepharose column equalibrated with the buffer A. 120 ml of the buffer A containing a linear gradient solution of 0.05 to 1 M sodium acetate was used to separate the phosphodiesterase and recover 24 5-ml fractions. Each of the fractions was measured for the cAMP phosphodiesterase activity.
2) The test compound was reacted at a desired concentration in a reaction mixture containing 20 mM tris-HCl (pH 7.5), 1 mM MgCl2, 100 μM EDTA, 330 μg/ml calf serum albumin, 10 μg/ml 5′-nucleotidase, 0.4 μCi ^3H-cAMP ([…] cAMP) and the type IV phosphodiesterase stored solution at 30° C. for 30 minutes. QAE-Sephadex suspended in 10 mM of hepes-Na (pH-7.0) was added to the reaction mixture which was then allowed to stand for 5 minutes, then the supernatant was obtained, QAE-Sephadex was further added, to the supernatant, and was allowed to stand for 5 minutes, then the supernatant was obtained and measured for radioactivity.

| Compound | IC50 [nM] |
| --- | --- |
| O=C(Nc1ccncc1)c1cn(-c2cccc3cccnc23)c2ncccc2c1=O [Example 149, 1-(8-Quinonyl)-N-(4-pyridyl)-1,4-dihydro[1,8]naphthylidin-4-one-3-carboxamide] | 940 |
| COc1ccc(-n2cc(C(=O)Nc3c(Cl)cncc3Cl)c(=O)c3cccnc32)cc1 [Example 123, N-(3,5-Dichloropyridin-4-yl)-1-(4-methoxyphenyl)-1,4-dihydro[1,8]naphthyldin-4-one-3-carboxamide] | 0.6 |
| CCOC(=O)c1cn(-c2cccc([N+](=O)[O-])c2)c2ncccc2c1=O [Example 19, Ethyl 1-(3-Nitrophenyl)-1,4-dihydro[1,8]naphthylidin-4-one-3-carboxylate] | 930 |
| O=C(Nc1cccnc1)c1cn(-c2ccccn2)c2ncccc2c1=O [Example 131, 1-(2-Pyridyl)-N-(3-pyridyl)-1,4-dihydro[1,8]naphthylidin-4-one-3-carboxamide] | 590 |
| COc1ccccc1NC(=O)c1cn(-c2ccc(F)cc2)c2ncccc2c1=O [Example 76, 1-(4-Fluorohenyl)-N-(2-methoxyphenyl)-1,4-dihydro[1,8]naphthylidin-4-one-3-carboxamide] | 500 |
| COCCNC(=O)c1cn(-c2ccc(F)cc2)c2ncccc2c1=O [Example 59, 1-(4-fluorophenyl)-N-(2-methoxyethyl)-1,4-dihydro[1,8]naphthylidin-4-one-3-carboxamide] | 640 |
| O=C(Nc1ccccc1-c1ccccc1)c1cn(-c2ccc(F)cc2)c2ncccc2c1=O [Example 100, N-(2-Biphenyl)-1-(4-fluorophenyl)-1,4-dihydro[1,8]naphthylidin-4-one-3-carboxamide] | 650 |
| Cc1ccc(-n2cc(C(=O)Nc3ccncc3)c(=O)c3cccnc32)cc1 [Example 120, N-(4-Pyridyl)-1-(4-tolyl)-1,4-dihydro[1,8]naphthylidin-4-one-3-carboxamide] | 99 |
| O=C(Nc1ccncc1)c1cn(-c2ccc(O)nc2)c2ncccc2c1=O [Example 145, 1-(2-Hydroxypyridin-5-yl)-N-(4-pyridyl)-1,4-dihydro[1,8]naphthylidin-4-one-3-carboxamide] | 400 |
| O=C(NCc1ccccn1)c1cn(-c2ccc(F)cc2)c2ncccc2c1=O [Example 62, 1-(4-Fluorophenyl)-N-(2-pyridyl)methyl-1,4-dihydro[1,8]naphthylidin-4-one-3-carboxamide] | 1600 |
| O=C(NCc1cccnc1)c1cn(-c2ccc(F)cc2)c2ncccc2c1=O [Example 63, 1-(4-Fluorophenyl)-N-(3-pyridyl)methyl-1,4-dihydro[1,8]naphthylidin-4-one-3-carboxamide] | 1200 |
| N=C(N)c1cccc(-n2cc(C(=O)Nc3ccncc3)c(=O)c3cccnc32)c1 [Example 130, 1-(Benzamidin-3-yl)-N-(4-pyridyl)-1,4-dihydro[1,8]naphthylidin-4-one-3-carboxamide] | 260 |
| CCOC(=O)c1cn(-c2cccc(C(C)=O)c2)c2ncccc2c1=O [Example 24, Ethyl 1-(3-Acetophenyl)-1,4-dihydro[1,8]naphthylidin-4-one-3-carboxylate] | 600 |
| Cc1ccc(-n2cc(C(=O)Nc3c(Cl)cncc3Cl)c(=O)c3cccnc32)cc1 [Example 121, N-(3,5-Dichloroiyridin-4-yl)-1-(4-tolyl)-1,4-dihydro[18]naphthylidin-4-one-3-carboxamide] | 3.1 |
| O=C(Nc1ccncc1)c1cn(-c2ccc(Cl)cc2)c2ncccc2c1=O [Example 124, 1-(4-Chlorophenyl)-N-(4-pyridyl)-1,4-dihydro[1,8]naphthylidin-4-one-3-carboxamide] | 110 |
| CNC(=O)c1cn(-c2ccc(F)cc2)c2ncccc2c1=O [Example 52, 1-(4-Fluorophenyl)-N-methyl-1,4-dihydro[1,8]naphthylidin-4-one-3-carboxamide] | 150 |
| CCOC(=O)c1cccc(NC(=O)c2cn(-c3ccc(F)cc3)c3ncccc3c2=O)c1 [Example 85, Ethyl 3-[{[1-(4-Fluorophenyl)-1,4-dihydro[1,8]naphthylidin-4-one-3-yl]carbonyl}amino]benzoate] | 550 |
